Test results reported in PubChem BioAssay (NCI).
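These data come from cells grown in 96-well plates and exposed to compound for 48 hours at five concentrations. The concentration for 50% growth inhibition is given as GI50. The concentration for full growth arrest is given as TGI.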

Legend:
Assay in all cases: NCI tumour cell line growth inhibition, 48 h
SN12C renal = test system: SN12C renal
UACC-257 melanoma = test system: UACC-257 melanoma
OVCAR-4 ovarian = test system: OVCAR-4 ovarian
SK-OV-3 ovarian = test system: SK-OV-3 ovarian
NCI/ADR-RES ovarian = test system: NCI/ADR-RES ovarian
SK-MEL-5 melanoma = test system: SK-MEL-5 melanoma
UACC-62 melanoma = test system: UACC-62 melanoma
BT-549 breast = test system: BT-549 breast
MDA-MB-231 breast = test system: MDA-MB-231 breast
A549 NSCLC = test system: A549 NSCLC
SF-268 CNS = test system: SF-268 CNS
M14 melanoma = test system: M14 melanoma
HOP-62 NSCLC = test system: HOP-62 NSCLC
CAKI-1 renal = test system: CAKI-1 renal
KM12 colon = test system: KM12 colon
PC-3 prostate = test system: PC-3 prostate
SK-MEL-28 melanoma = test system: SK-MEL-28 melanoma

Row | SMILES | TGI (SN12C renal) [µM] | TGI (UACC-257 melanoma) [µM] | TGI (OVCAR-4 ovarian) [µM] | TGI (SK-OV-3 ovarian) [µM] | TGI (NCI/ADR-RES ovarian) [µM] | TGI (SK-MEL-5 melanoma) [µM] | TGI (UACC-62 melanoma) [µM] | TGI (BT-549 breast) [µM] | TGI (MDA-MB-231 breast) [µM] | TGI (A549 NSCLC) [µM] | TGI (SF-268 CNS) [µM] | TGI (M14 melanoma) [µM] | TGI (HOP-62 NSCLC) [µM] | TGI (CAKI-1 renal) [µM] | TGI (KM12 colon) [µM] | TGI (PC-3 prostate) [µM] | TGI (SK-MEL-28 melanoma) [µM] | GI50 (UACC-62 melanoma) [µM]
1 | CN1C(=O)c2c(c3c4ccccc4n(C4OC(CO)C(O)C(O)C4O)c3c3[nH]c4ccccc4c23)C1=O (stereo not drawn) | 9.71 | 7.36 | 6.36 | 10.9 | 49.9 | 3.29 | 4.09 | 33.8 | 5.33 | 29.6 | 4.85 | 6.13 | 9.51 | 5.3 | 11.3 | 9.62 | 8.43 | 
2 | NNc1ccccc1Cl | > 100 | > 100 | > 100 | > 100 | > 100 | > 100 | > 100 | > 100 | > 100 | > 100 | > 100 | > 100 | > 100 | > 100 | > 100 | > 100 | > 100 | 
3 | CC[C@H](C)C1=C(O)[N@+]2([O-])Oc3ccc(-c4c(O)c(O)c(-c5ccc(OC(C)=O)cc5)c(OC(C)=O)c4OC(C)=O)cc3O[C@]2([C@@H](C)CC)C(=O)N1O | > 50 | > 50 | 31.5 | > 50 | > 50 | > 50 | > 50 | > 50 | > 50 | > 50 | > 50 | > 50 | > 50 | > 50 | > 50 | > 50 | > 50 | 
4 | CC[N+]1(C)CCC(O)(c2ccccc2)C(C(=O)c2ccccc2)C1 (stereo not drawn) | 21.6 | 32.7 | 25.9 | 32.1 | 83.6 | 33.6 | 38.6 | 27.7 | 42.7 | 27.9 | 59.8 | 24.1 | 48.2 | 7.51 | 39.3 | 33.9 | 30.9 | 
5 | O=C(Nc1sccc1S(=O)(=O)c1ccc(Cl)cc1)C(F)(F)F | 54.6 | > 100 | > 100 | > 100 | > 100 | 38.8 | > 100 | > 100 | 37.3 | > 100 | 83.6 | > 100 | > 100 | 62.5 | 61.4 | > 100 | > 100 | 
6 | CC(C)=C[C@@H]1C[C@H](C)c2c(O)cc(C)c3c2C1=C(C)C(=O)C3=O | 28.3 | 37.5 | 23.4 | 30.9 | 49.6 | 26.5 | 29.6 | 28.1 | 33.9 | 21.7 | 31.4 | 27 | 35.8 | 30.2 | 31.3 | 23.6 | 29.8 | 
7 | Cc1cc(S(=O)(=O)NC2=NC(c3ccccc3)c3ccccc3N2)c(S)cc1Cl (stereo not drawn) | > 100 | > 100 | > 100 | > 100 | > 100 | > 100 | > 100 | > 100 | > 100 | > 100 | > 100 | > 100 | > 100 | > 100 | > 100 | 80.9 | > 100 | 
8 | CC#Cc1cc2c(cc1O)CC[C@@H]1[C@@H]2CC[C@]2(C)[C@@H](O)CC[C@@H]12 | 22.8 | 28.1 | 62 | > 62.2 | 10.3 | 13.8 | 16.7 | 24.5 | 46.2 | > 37.8 | > 100 | 17.7 | 16 | > 69.6 | 14.1 | 39 | 23.7 | 0.503
9 | Cc1c2cccc-2ccc2c1[nH]c1ccc(Br)cc12 | 27.2 | > 100 | 6.62 | 28.7 | 38.4 | 13.4 | 27.1 | 20.7 | 18.8 | 17.5 | 17.2 | 20.9 | 20.1 | 24.9 | 7.08 | 14.2 | 24 | 
10 | CN(C)/C=C(\C(=O)c1ccccc1)n1nc(-c2ccccc2)cc1-c1ccccc1 | > 10 | > 10 | > 10 | > 10 | > 10 | > 10 | > 10 | > 10 | > 10 | > 10 | > 10 | > 10 | > 10 | > 10 | > 10 | > 10 | > 10 | 
11 | OCc1ccc2c(c1)CC1(C2)Cc2cc3c(cc2C1)CCC3 | > 50.8 | > 100 | > 100 | > 100 | > 100 | > 31.2 | > 72.2 | > 100 | > 100 | > 100 | > 100 | > 100 | > 46.5 | > 100 | > 100 | > 34.6 | > 100 | 
12 | S=C(N/N=C(/c1ccccc1)c1ccccn1)Nc1ccc(Cl)cc1 | 13.4 | 2.43 | 14.2 | 6.81 | 14.3 | 8.1 | 7.65 | 9.94 | 8.27 | 14 | 15.5 | 2.81 | 16.6 | 9.37 | 13.7 | 10.3 | 11.8 | 
13 | COc1ccc(C2CC(c3ccc4ccccc4c3O)=NN2C(C)=O)cc1OC (stereo not drawn) | > 100 | > 100 | > 100 | > 100 | > 100 | > 100 | > 100 | > 100 | > 100 | > 100 | > 100 | > 100 | > 100 | > 100 | > 100 | > 100 | > 100 | 
14 | Cn1c(=O)c2c(nc(N)n2C2OC(CO)C(O)C2O)n(C)c1=O (stereo not drawn) | > 100 | > 100 | > 100 | > 100 | > 100 | > 100 | > 100 | > 100 | > 100 | > 100 | > 100 | > 100 | > 100 | > 100 | > 100 | > 100 | > 100 | 
15 | COC(=O)[C@@H]1C2OC(C)(C)OC2CN1C(=O)OCc1ccccc1 (stereo partly drawn) | > 100 | > 100 | > 100 | > 100 | > 100 | > 100 | > 100 | > 100 | > 100 | > 100 | > 100 | > 100 | > 100 | > 100 | > 100 | > 100 | > 100 | 
16 | CC1(c2nc3ccccc3[nH]2)CCC(C(N)=O)C(C)(C)O1 (stereo not drawn) | > 100 | > 100 | > 100 | > 100 | > 100 | > 100 | > 100 | > 100 | > 100 | > 100 | > 100 | > 100 | > 100 | > 100 | > 100 | > 100 | > 100 | 
17 | CN(C)CCCNc1ccnc2cc([N+](=O)[O-])ccc12 | 39.9 | 27.7 | 12.8 | 62.3 | 50 | 24.1 | 33.6 | 33.4 | 28.6 | 60.6 | 53.9 | 24.4 | 42.3 | 67.6 | 26.4 | 42.4 | 97.5 | 
18 | O=C1Nc2cc([N+](=O)[O-])ccc2C(=O)N2CCC[C@@H]12 | > 100 | > 100 | > 100 | > 100 | > 100 | > 100 | > 100 | > 100 | > 100 | > 100 | > 100 | > 100 | > 100 | > 100 | > 100 | > 100 | > 100 | 
19 | Nc1nc(Cl)cc(NCC2(CO)CCC(O)C2)n1 (stereo not drawn) | > 100 | > 100 | > 100 | > 100 | > 100 | > 100 | > 100 | > 100 | > 100 | > 100 | > 100 | > 100 | > 100 | > 100 | > 100 | > 100 | > 100 | 
20 | O=C1c2cscc2C(=O)C1(O)O | 36.3 | 65.1 | > 100 | > 100 | > 100 | > 100 | > 100 | 90.9 | > 100 | > 100 | > 100 | 45.5 | > 100 | 83.7 | > 100 | > 100 | > 100 | 
21 | COc1ccc2c(c1)CC[C@@H]1[C@@H]2CC[C@]2(C)C(=O)/C(=C/c3ccncc3)C[C@@H]12 | > 100 | > 100 | > 100 | > 100 | > 100 | 41.6 | > 100 | > 100 | > 100 | > 100 | > 100 | > 100 | 54.9 | > 100 | 73.9 | > 100 | 90.6 | 
